Laboratory results reported in patent US8940715B2, “Lipid-regulating agent and use thereof” (Hayashibara Co., Ltd., priority 2003, dated 2015).
Marks after values point to notes of the source that are not given here.

Assays:
male Wister-rats [1] = assay: Experiment 1-1 cecal tissue, cecal content and bile acids in cecum; assay type: in vivo; conditions: 4 weeks, rat
Source text: Fifty 5-weeks aged male Wister-rats, having a weight of 110 to 120 grams, commercialized by Charles River Japan, Kanagawa, Japan, were fed on a non-fiber feed having a composition shown in Table 1 for one week for habituation. After the habituation, the rats were randomly divided into five groups and each group was fed on either of feeds shown in Table 1, i.e., a non-fiber feed, a feed in which cellulose was incorporated into the non-fiber feed to give a content of 5% (hereinafter, abbreviated as “fiber feed”), a feed in which powdery anhydrous crystalline CTS (purity of CTS: 99.5%), prepared by the method of Example A-3 described later, was incorporated into the non-fiber feed to give a content of 1, 2, or 5%, on a dry solid basis, and the feeding test was carried out for four weeks. A fiber-feed and three kinds of feeds comprising CTS were prepared to give the total content of cellulose or CTS and corn starch of 44.75% to the total weight of each feed. […] After the completion of the feeding test, weight of individuals in each group was measured and an average weight and an average increase of weight of each group during the test period were calculated. Also, the total amount of feed fed to individual rat in each group during the 4-weeks test period and an average amount of CTS taken per day per kg-weight-rat were calculated and the results are in Table 2.
Just after extirpating cecum as described above, its content was collected and weighted. The concentration of bile acids was measured by the steps of adding two milliliters of 80% (v/v) methanol aqueous solution to 0.2 gram of the cecal content, extracting bile acids at 70° C. for 30 min, centrifuging (3,500 rpm, 10 min) the mixture, drying the resulting supernatant in a dessicator with P2O5 for overnight, and measuring bile acids using a kit, “BILE ACID-TEST WAKO”, commercialized by Wako Pure Chemical Industries, Ltd., Osaka, Japan. The amount of bile acids was calculated by multiplying the concentration of bile acids and weight of the cecal content. […]

male Wister-rats [2] = assay: Experiment 1-1 GOT activity in blood plasma (hepatic function disorder check); assay type: in vivo, rat; conditions: for GOT: blood plasma, 4 weeks, rat
Source text: (§1) Fifty 5-weeks aged male Wister-rats, having a weight of 110 to 120 grams, commercialized by Charles River Japan, Kanagawa, Japan, were fed on a non-fiber feed having a composition shown in Table 1 for one week for habituation. After the habituation, the rats were randomly divided into five groups and each group was fed on either of feeds shown in Table 1, i.e., a non-fiber feed, a feed in which cellulose was incorporated into the non-fiber feed to give a content of 5% (hereinafter, abbreviated as “fiber feed”), a feed in which powdery anhydrous crystalline CTS (purity of CTS: 99.5%), prepared by the method of Example A-3 described later, was incorporated into the non-fiber feed to give a content of 1, 2, or 5%, on a dry solid basis, and the feeding test was carried out for four weeks. A fiber-feed and three kinds of feeds comprising CTS were prepared to give the total content of cellulose or CTS and corn starch of 44.75% to the total weight of each feed. The rats were kept under the conditions of keeping the temperature at 25° C., lighting and shading for 12 hours each/day, and allowing the rats to eat the respective feed and water freely. After the completion of the feeding test, weight of individuals in each group was measured and an average weight and an average increase of weight of each group during the test period were calculated. Also, the total amount of feed fed to individual rat in each group during the 4-weeks test period and an average amount of CTS taken per day per kg-weight-rat were calculated and the results are in Table 2.
After the feeding test, each rat was fasted for one day and incised under anesthesia with ether. Then, blood was collected from the main vein of each rat using a syringe treated with 1% EDTA. Each collected blood was centrifuged at 3,500 rpm for 10 minutes to separate blood plasma and the contents of total cholesterol, triglyceride, and phospholipids in the resulting blood plasma were measured by using kits, “CHOLESTEROL C-TEST-WAKO”, “TRIGLYCERIDE-TEST-WAKO”, and “PHOSPHOLIPID C-TEST-WAKO”, respectively, commercialized by Wako Pure Chemical Industries, Ltd., Osaka, Japan. In order to check the hepatic function disorder, GOT activity in the blood plasma was measured using a kit, “GOT-TEST-WAKO”, commercialized by Wako Pure Chemical Industries, Ltd., Osaka, Japan. The content of LDL-cholesterol was calculated by subtracting the content of HDL-cholesterol from the total content of cholesterol. A significant difference test was done with respect to the group fed on fiber feed. […]

male Wister-rats [3] = assay: Experiment 1-1 liver weight and lipids in liver; assay type: in vivo; conditions: 4 weeks, rat
Source text: as §1
(§2) After collecting the blood described above, each rat was killed by dislocating its cervical vertebrae and anatomized. Then, adipose tissues surrounding intestinal membrane, kidney, and testis, as well as liver and cecum, were collected. The wet-weight of those adipose tissues was measured and the results are in Table 4. In the case of liver, the wet-weight and the amount of total lipid, total cholesterol, triglyceride, and phospholipids were measured and the results are in Table 5. The amount of total lipid, total cholesterol, triglyceride, and phospholipids in the liver were measured by the steps of homogenizing four parts by weight of liver with four parts by weight of water using a homogenizer; extracting lipid by repeating three-times the following procedure of adding eight milliliters of a chloroform-methanol (2:1, by volume) solution, stirring the mixture, and centrifuging (3,000 rpm, 15 min) to collect chloroform phase; concentrating the resulting chloroform solution; and measuring those according to the same procedure used in the case of lipids in blood plasma.

male Wister-rats [4] = assay: Experiment 1-1 amount of lipids in blood plasma; assay type: in vivo; conditions: 4 weeks, rat
Source text: as §1
After the feeding test, each rat was fasted for one day and incised under anesthesia with ether. Then, blood was collected from the main vein of each rat using a syringe treated with 1% EDTA. Each collected blood was centrifuged at 3,500 rpm for 10 minutes to separate blood plasma and the contents of total cholesterol, triglyceride, and phospholipids in the resulting blood plasma were measured by using kits, “CHOLESTEROL C-TEST-WAKO”, “TRIGLYCERIDE-TEST-WAKO”, and “PHOSPHOLIPID C-TEST-WAKO”, respectively, commercialized by Wako Pure Chemical Industries, Ltd., Osaka, Japan. In order to check the hepatic function disorder, GOT activity in the blood plasma was measured using a kit, “GOT-TEST-WAKO”, commercialized by Wako Pure Chemical Industries, Ltd., Osaka, Japan. The content of LDL-cholesterol was calculated by subtracting the content of HDL-cholesterol from the total content of cholesterol. A significant difference test was done with respect to the group fed on fiber feed. In the case of cholesterol, a significant difference test was done with respect to the group fed on non-fiber feed because it was believed that cellulose has no activity of reducing the amount of cholesterol by oral intake as described in “SHOKUMOTSU-SENI KISO-TO-OYO (Dietary fiber, its basis and application)” published by ASAKURA-SHOTEN in 1997.

male Wister-rats [5] = assay: Experiment 1-1 observation of diarrhea during feeding test; assay type: in vivo, rat
Source text: as §1
The symptom of diarrhea was not observed in rats fed on a feed with CTS content of 2%.

[6] = Experiment 1-1 feeding test on rat: weight and amount of feed taken; assay type: in vivo; conditions: 4 weeks
Source text: as §1

male Wister-rats [7] = assay: Experiment 1-1 wet-weight of adipose tissues around organs; assay type: in vivo; conditions: 4 weeks, rat
Source text: as §1, §2

[8] = 5% (w/w) CTS (Fiber: 5% cellulose) in feed

Structure (SMILES): OCC1OC2OCC3O[C@H](O[C@H]4C(O)C(CO)OC(OCC5O[C@H](O[C@@H](C1O)C2O)C(O)C(O)[C@@H]5O)C4O)C(O)C(O)[C@@H]3O (stereo partly drawn) [CTS, cyclo {→6)-α-D-glucopyranosyl-(1→3)-α-D-glucopyranosyl-(1→6)-α-D-glucopyranosyl-(1→3)-α-D-glucopyranosyl-(1→}]
- Bile acids in cecum (male Wister-rats [1]; 1% (w/w) CTS in feed): 1.15* μmol
- Bile acids in cecum (male Wister-rats [1]; 2% (w/w) CTS in feed): 1.36* μmol
- Bile acids in cecum (male Wister-rats [1]; [8]): 1.53* μmol
- GOT (male Wister-rats [2]; 1% (w/w) CTS in feed): 10.3 IU
- GOT (male Wister-rats [2]; 2% (w/w) CTS in feed): 10.2 IU
- GOT (male Wister-rats [2]; [8]): 10.7 IU
- GOT values (markers of functional disorder of liver) during the test period (male Wister-rats [2]; rats, regardless of the intake of CTS): not significantly changed
- Phospholipids in liver (male Wister-rats [3]; 1% (w/w) CTS in feed): 140 mg/individual
- Total cholesterols in liver (male Wister-rats [3]; 1% (w/w) CTS in feed): 35.9 mg/individual
- Total lipids in liver (male Wister-rats [3]; 1% (w/w) CTS in feed): 510 mg/individual
- Triglycerides in liver (male Wister-rats [3]; 1% (w/w) CTS in feed): 186 mg/individual
- Phospholipids in liver (male Wister-rats [3]; 2% (w/w) CTS in feed): 149 mg/individual
- Total cholesterols in liver (male Wister-rats [3]; 2% (w/w) CTS in feed): 37.2 mg/individual
- Total lipids in liver (male Wister-rats [3]; 2% (w/w) CTS in feed): 598 mg/individual
- Triglycerides in liver (male Wister-rats [3]; 2% (w/w) CTS in feed): 254 mg/individual
- Phospholipids in liver (male Wister-rats [3]; [8]): 142 mg/individual
- Total cholesterols in liver (male Wister-rats [3]; [8]): 35.4 mg/individual
- Total lipids in liver (male Wister-rats [3]; [8]): 575 mg/individual
- Triglycerides in liver (male Wister-rats [3]; [8]): 239 mg/individual
- Phospholipids (male Wister-rats [4]; 1% (w/w) CTS in feed): 116 mg/dL
- Total cholesterols (male Wister-rats [4]; 1% (w/w) CTS in feed): 67.1 mg/dL
- Triglycerides (male Wister-rats [4]; 1% (w/w) CTS in feed): 44.2 mg/dL
- Phospholipids (male Wister-rats [4]; 2% (w/w) CTS in feed): 115 mg/dL
- Total cholesterols (male Wister-rats [4]; 2% (w/w) CTS in feed): 66.1 mg/dL
- Triglycerides (male Wister-rats [4]; 2% (w/w) CTS in feed): 28.7* mg/dl
- Phospholipids (male Wister-rats [4]; [8]): 107 mg/dL
- Total cholesterols (male Wister-rats [4]; [8]): 59.4* mg/dl
- Triglycerides (male Wister-rats [4]; [8]): 21.7* mg/dl
- symptom of diarrhea (male Wister-rats [5]; rats fed on a feed with CTS content of 2%): not observed
- duration of symptom of diarrhea after initial intake of CTS (male Wister-rats [5]; rats fed on a feed with CTS content of 5%): 2 to 3 days
- symptom of diarrhea (individuals affected) (male Wister-rats [5]; rats fed on a feed with CTS content of 5%, then cured): two individuals in ten individuals
- Increase of weight ([6]; 1% (w/w) CTS in feed): 164 g/individual/28 days
- Weight ([6]; 1% (w/w) CTS in feed): 337 g/individual
- Increase of weight ([6]; 2% (w/w) CTS in feed): 169 g/individual/28 days
- Weight ([6]; 2% (w/w) CTS in feed): 342 g/individual
- Increase of weight [6, 8]: 149* g/individual/28 days
- Weight [6, 8]: 322* g/individual
- Adipose surrounding intestinal membrane (male Wister-rats [7]; 1% (w/w) CTS in feed): 3.7 g/individual
- Adipose surrounding kidney (male Wister-rats [7]; 1% (w/w) CTS in feed): 3.7* g/individual
- Adipose surrounding testis (male Wister-rats [7]; 1% (w/w) CTS in feed): 4.0* g/individual
- Adipose surrounding intestinal membrane (male Wister-rats [7]; 2% (w/w) CTS in feed): 3.1* g/individual
- Adipose surrounding kidney (male Wister-rats [7]; 2% (w/w) CTS in feed): 2.9* g/individual
- Adipose surrounding testis (male Wister-rats [7]; 2% (w/w) CTS in feed): 3.9* g/individual
- Adipose surrounding intestinal membrane (male Wister-rats [7]; [8]): 1.9* g/individual
- Adipose surrounding kidney (male Wister-rats [7]; [8]): 2.1* g/individual
- Adipose surrounding testis (male Wister-rats [7]; [8]): 3.1* g/individual
